From PMC11117721, “A Fast-Binding, Functionally Reversible, COX-2 Radiotracer for CNS PET Imaging” (ACS Central Science, 2024)

Target: T1, COX-2 (Homo sapiens, UniProt P35354)
T1 sequence (P35354 18-604): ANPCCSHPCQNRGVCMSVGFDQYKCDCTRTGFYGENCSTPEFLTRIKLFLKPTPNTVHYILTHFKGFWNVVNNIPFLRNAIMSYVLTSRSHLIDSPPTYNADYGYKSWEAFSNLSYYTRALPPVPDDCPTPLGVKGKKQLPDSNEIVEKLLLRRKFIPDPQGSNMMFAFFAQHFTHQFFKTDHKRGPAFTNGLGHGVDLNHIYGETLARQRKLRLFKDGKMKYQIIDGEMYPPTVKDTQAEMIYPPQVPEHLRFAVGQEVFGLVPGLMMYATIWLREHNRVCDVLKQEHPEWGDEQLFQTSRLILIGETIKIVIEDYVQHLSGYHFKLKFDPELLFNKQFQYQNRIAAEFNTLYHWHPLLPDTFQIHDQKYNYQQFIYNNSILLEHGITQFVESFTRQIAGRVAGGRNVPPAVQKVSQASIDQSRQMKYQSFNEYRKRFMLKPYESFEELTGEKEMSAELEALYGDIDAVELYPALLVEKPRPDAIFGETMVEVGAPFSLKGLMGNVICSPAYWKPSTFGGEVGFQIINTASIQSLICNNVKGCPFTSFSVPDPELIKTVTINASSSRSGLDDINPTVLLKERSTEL
Experiment: PET imaging of h-Thy1 COX-2 transgenic mice
Type: in vivo, mouse
Set-up: FLAG; P2A linker remnant (GFP cassette co-expressed, separated by P2A); host or cells: rat striatal (caudate putamen) neurons transduced in vivo with AAV2, human synapsin promoter
Settings: for SUV Average (9–21 min): h-Thy1 COX-2 mice (n = 5)
Text: We performed additional validation of [^11C]BRD1158 through in vivo PET imaging of an hCOX-2 transgenic mouse line (Figure 3), which overexpressed human COX-2 primarily in neurons (Strain No. 010703, Jackson Laboratories). […] While we did perform contralateral sham (control virus) injections in the AAV rats to assess potential injection confounds, as COX-2 is part of the injury and inflammation response, it was important to validate in a model naïve to brain insult to mitigate how aspects of the AAV rat experimental design could have misled our interpretations of tracer specific binding.
In accordance with Massachusetts General Hospital Institutional Animal Care and Use Committee (IACUC) protocols, Sprague Dawley rats (300-500g, Charles River Laboratories), wildtype mice (Strain C57BL/6J), and human Thy-1-COX-2 transgenic line 303 mice (Strain 010703, Jackson Laboratories) were used in these studies. All animals were housed in a standard animal facility with access to conventional rodent food and water ad libitum and a 12 -hour day/night schedule. All animals were allowed to acclimate before any experime ntal procedures. Only male animals were used for imaging experiments .
Animals were induced under anesthesia using 1 -3% isoflurane in a carrier of 1.0 -1.5 L/min oxygen.
Maintenance of isoflurane depended on procedure and species, rats 2 -3% and mice 1-2%. Rats undergoing surgeries had higher isoflurane maintenance at 3 -4%. After induction, the animals’ body temperatures were regulated using a support heating pad or fan throughout all experiments.
Respiratory rates and body temperature were monitored through all imaging and surgical procedures, generally using a respiratory pad and rectal probe. Injections were made through the lateral tail vein.
Rats were cannulated with an IV extension using a 60 in, 0.3 mL volume IV extender (Smith Medical) and a 24 ga x 0.75 in IV catheter (McKesson). Mice were cannulated with Intramedic PE10 tubing (BD […]
Group 2 animals then […]
received one 4µL ICV injection of AAV2-GFP-hCOX2 to the Rcpu and one 4µL ICV injection of AAV2-GFP to the Lcpu, an injection paradigm that successfully led to robust, localized, unilateral COX -2 expression that we could use to compare radiotracers (Figure 2, SI Figure 8). Another rat (animal ID SD2006080) received one 4µL ICV injection of AAV2-GFP-hCOX2 to the Rcpu and no left caudate sham injection (SI
Figure 9). All surgical procedures were performed aseptically. Once rats were prepared and secured with a stereotaxic device (Stoelting Co, Wood Dale, IL), bregma was located. […]
A 33 -gauge neuro syringe (Hamilton, Reno, NV) was inserted around DV 3.5 mm for one injection. I njections were given slowly and the needle was kept in for 15 min to allow for adequate perfusion. […]

[11CH3]S(=O)(=O)c1ccc(-c2cccc(NCc3ccoc3)n2)cc1 [[^11C]BRD1158]
SUV Average (9–21 min) (cerebellum): 1.84 ± 0.56
SUV Average (9–21 min) (cortex): 1.68 ± 0.50
SUV Average (9–21 min) (striatum): 1.95 ± 0.55
time to significant signal differentiation from wild-type controls (hCOX-2 transgenic mice): 10 to 20 min
